Results from BigSolDB 2.1.

O=[N+]([O-])c1cc([N+](=O)[O-])c(Cl)c(Cl)c1Cl
solubility (mole fraction)
Conditions | 278.15 K | 283.15 K | 288.15 K | 293.15 K | 298.15 K | 303.15 K | 308.15 K | 313.15 K | 318.15 K | 323.15 K
in 1,2-dichloroethane | 0.06 | 0.0736 | 0.0895 | 0.108 | 0.13 | 0.155 | 0.185 | 0.219 | 0.258 | 0.301
in DMF | 0.194 | 0.211 | 0.23 | 0.251 | 0.274 | 0.298 | 0.324 | 0.352 | 0.384 | 0.419
in DMSO | – | – | – | 0.238 | 0.262 | 0.287 | 0.315 | 0.345 | 0.378 | 0.412
in NMP | 0.278 | 0.291 | 0.305 | 0.321 | 0.338 | 0.357 | 0.377 | 0.4 | 0.425 | 0.454
in acetone | 0.109 | 0.124 | 0.141 | 0.16 | 0.181 | 0.204 | 0.229 | 0.257 | 0.289 | 0.323
in acetonitrile | 0.0401 | 0.0511 | 0.0644 | 0.0806 | 0.1 | 0.123 | 0.15 | 0.183 | 0.22 | 0.265
in chloroform | 0.0536 | 0.066 | 0.0807 | 0.0982 | 0.118 | 0.141 | 0.169 | 0.201 | 0.237 | 0.279
in dichloromethane | 0.0689 | 0.0822 | 0.0975 | 0.116 | 0.135 | 0.159 | 0.185 | – | – | –
in ethanol | 0.00235 | 0.00301 | 0.00382 | 0.00483 | 0.00611 | 0.00765 | 0.00957 | 0.0118 | 0.0146 | 0.0182
in ethyl acetate | 0.097 | 0.111 | 0.128 | 0.146 | 0.167 | 0.191 | 0.217 | 0.245 | 0.279 | 0.314
in isopropanol | 0.000879 | 0.00125 | 0.00174 | 0.00241 | 0.00333 | 0.00451 | 0.00603 | 0.00807 | 0.0107 | 0.0142
in methanol | 0.00262 | 0.0033 | 0.00414 | 0.00519 | 0.00648 | 0.00806 | 0.00985 | 0.0121 | 0.0149 | 0.0182
in n-butanol | 0.00175 | 0.00238 | 0.0032 | 0.00428 | 0.00565 | 0.00752 | 0.00967 | 0.0126 | 0.0164 | 0.021
in tetrachloromethane | 0.00374 | 0.00582 | 0.00891 | 0.0134 | 0.0201 | 0.0296 | 0.0425 | 0.0609 | 0.0864 | 0.12
in toluene | 0.14 | 0.159 | 0.18 | 0.204 | 0.23 | 0.258 | 0.289 | 0.323 | 0.36 | 0.4
